The target in the test is T1, ErbB4 (Rattus norvegicus, UniProt Q62956).
T1 construct: cerebral cortex was dissected out of Sprague-Dawley rat embryos (E18) and dissociated; endogenous in cells; host or cells: primary rat (Sprague-Dawley) embryonic cortical neurons, DIV14, GAD65-positive
Kind of test: phospho-ErbB4 immunostaining in GAD65-positive cortical neurons. As to conditions: pretreatment 10 min before 5 nM NRG1; AG1478/AG879 5 mM [sic]. Format: cell-based. The method, then:
FIG. 4A is a bar graph showing quantitative analysis of phospho-ErbB4 (p-ErbB4) in GAD65-positive cortical neurons treated with ecto-ErbB4 for 10 min prior to the addition of NRG1 (5 nM, final concentration) for another 10 min. n=7, *p<0.05. FIG. 4B is a line graph of eIPSC amplitude (nA) versus time (min) for cortical slices treated with sequential addition of NRG1 (5 nM) and ecto-ErbB4 (1 μg/ml and 2 μg/ml) (all final concentrations). On the top are averaged traces before (a) and after (b) NRG1, and after different dosages of ecto-ErbB4 ([c] and [d], 1 and 2 μg/ml, respectively). […]
FIG. 5A is a bar graph of phospho-ErbB4 (p-ErbB4) in cortical neurons treated with 5 mM AG1478, an inhibitor of ErbB4, or AG879, an inhibitor of ErbB2, for 10 min prior to the addition of NRG1 (5 nM, final concentration). Neurons were fixed and stained with phospho-ErbB4 and GAD65 antibodies, and visualized with Alexa 594 and FITC-coupled secondary antibodies respectively, and quantified. […]

The structures appear in SMILES notation.

T1 sequence (Q62956 26-1308): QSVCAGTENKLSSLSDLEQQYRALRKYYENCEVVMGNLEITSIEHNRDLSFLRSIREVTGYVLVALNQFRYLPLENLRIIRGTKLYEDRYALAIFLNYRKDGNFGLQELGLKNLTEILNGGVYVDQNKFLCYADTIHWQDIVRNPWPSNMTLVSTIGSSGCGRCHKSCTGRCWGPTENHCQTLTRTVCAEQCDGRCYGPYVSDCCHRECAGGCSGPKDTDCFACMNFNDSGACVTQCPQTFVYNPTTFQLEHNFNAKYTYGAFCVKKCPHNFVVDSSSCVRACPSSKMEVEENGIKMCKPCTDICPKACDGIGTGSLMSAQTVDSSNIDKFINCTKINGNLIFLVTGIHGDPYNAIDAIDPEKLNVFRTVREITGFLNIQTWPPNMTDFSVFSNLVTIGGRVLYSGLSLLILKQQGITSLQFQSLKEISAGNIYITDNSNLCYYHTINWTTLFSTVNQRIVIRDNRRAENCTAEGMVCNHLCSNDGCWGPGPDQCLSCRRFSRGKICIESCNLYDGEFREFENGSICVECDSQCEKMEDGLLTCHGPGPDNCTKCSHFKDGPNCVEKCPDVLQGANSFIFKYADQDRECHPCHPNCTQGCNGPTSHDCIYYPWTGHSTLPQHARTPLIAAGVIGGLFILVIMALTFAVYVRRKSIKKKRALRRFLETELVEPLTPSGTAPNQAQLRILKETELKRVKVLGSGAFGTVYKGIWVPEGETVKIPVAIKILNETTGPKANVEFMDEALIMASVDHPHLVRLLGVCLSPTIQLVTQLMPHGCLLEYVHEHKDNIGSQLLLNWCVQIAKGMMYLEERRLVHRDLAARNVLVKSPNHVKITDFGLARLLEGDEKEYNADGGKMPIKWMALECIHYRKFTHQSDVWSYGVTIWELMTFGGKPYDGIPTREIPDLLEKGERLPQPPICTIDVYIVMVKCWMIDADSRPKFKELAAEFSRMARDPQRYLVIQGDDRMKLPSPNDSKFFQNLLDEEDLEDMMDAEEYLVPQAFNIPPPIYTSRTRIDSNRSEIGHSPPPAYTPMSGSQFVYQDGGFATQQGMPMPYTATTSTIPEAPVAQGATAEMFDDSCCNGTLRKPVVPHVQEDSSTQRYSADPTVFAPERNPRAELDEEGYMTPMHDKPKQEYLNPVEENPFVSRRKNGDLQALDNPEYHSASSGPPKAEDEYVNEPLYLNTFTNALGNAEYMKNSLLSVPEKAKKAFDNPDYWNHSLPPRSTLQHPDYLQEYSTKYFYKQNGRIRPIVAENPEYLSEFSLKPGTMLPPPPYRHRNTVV

For `COc1cc2ncnc(Nc3cccc(Cl)c3)c2cc1OC` [AG1478], the “NRG1 activation (tyrosine phosphorylation) of ErbB4” value is reported as “blocked”.

These data come from US20130224223A1, “Compositions and Methods for Treating Neurological Disorders” (GEORGIA REGENTS UNIVERSITY, priority 2007, published 2013).
